Converted amounts (≈) assume the structure as drawn.
Test system: Aspergillus fumigatus (ATCC MYA-4609/AF293/CBS 101355)
Experiment: Measurement of minimum inhibitory concentration (MIC), AF293
Format: cell-based
Conditions: Aspergillus fumigatus AF293, 35° C., 48 hours, RPMI1640; for MIC: CBS101355, read-out: AF293: MIC
Protocol: New streaks are made with glycerol stock solution of the strains of Aspergillus fumigatus (ATCC MYA-4609/AF 293/CBS 101355) on Sabouraud's dextrose agar (SDA), incubate at 35° C. and a humidity of 40-70% for 72 hours. Other strains are processed as the same as AF293.
RPMI1640: one packet of RPMI1640 powder is dissolved in 1 L purified water and mixed well, add 0.165M MOPS, adjust the pH to 7.0, sterilize by filtration with 0.22 um membrane, and store at 4° C. for no more than 3 months.
Physiological saline: weigh 9 g of sodium chloride powder and dissolve in 1 L of purified water, and mixed well. Sterilize at 121° C. for 30 min, store at room temperature (RT) for no more than 1 week.
Dissolve the test compound and stock solution of one control compound with DMSO and obtain solutions at a concentration of 12.8 mg/mL
The maximum concentration of each compound is 0.8 mg/mL (e.g., 150 μL of dimethyl sulfoxide+10 uL of 12.8 mg/mL compound/control). Column 1 is filled with 40 μL of compound and columns 2 to 11 with 20 μL of dimethyl sulfoxide. Transfer 20 μL of compound from column 1 to column 2 to dilute the concentration. Repeat the above steps up to column 11 to give 2× serial dilutions.
2 μL of the above 2× serial dilutions are injected into each hole of the corresponding test plate using a multichannel pipette.
Drop 5 ml of saline on the Aspergillus fumigatus SDA plate. The spores were carefully wiped off from the surface of the plate with an L-shaped coating rod. Then the suspension is transferred into a sterile tube. After shaking, let the tube stand for 5 to 10 minutes. Count the number of spores in the upper suspension with a hemocytometer and check the purity. Adjust the inoculum concentration to 0.2-2.5×10^4 spores/mL.
Inject 198 μL of diluted inoculum into each holes of the corresponding test plate using a multichannel pipette.
Incubate at 35° C. for 48 hours.
To facilitate scoring of the presence or absence of growth on the wall, a magnifying glass is used. The tested 96-well microplates were photographed and the optical density at 530 nm is read with an enzyme marker (Tecan Spark).

Row | AF293: MIC | MIC | SMILES
1 |  | 0.13 µg/mL (≈ 0.241 µM) | Cc1cc(-c2ccccc2)c(C(=O)C(=O)Nc2ccc3c(c2)OCC2CN(c4ncc(C#N)s4)CCN32)n1C (centres unmarked) [Example 12]
2 |  | 0.25 µg/mL (≈ 0.475 µM) | Cc1cc(-c2ccccc2)c(C(=O)C(=O)Nc2ccc3c(c2)OCC2CN(c4ccc(F)nn4)CCN32)n1C (centres unmarked) [Example 13]
3 |  | 0.06 µg/mL (≈ 0.114 µM) | Cc1cc(-c2ccccc2)c(C(=O)C(=O)Nc2ccc3c(c2)OCC2CN(c4ccc(F)cn4)CCN32)n1C (centres unmarked) [Example 14]
4 | 1 µg/mL |  | Cc1cc(-c2ccccc2)c(C(=O)C(=O)Nc2ccc3c(c2)OCC2CN(c4ncn(C)n4)CCN32)n1C (centres unmarked) [Example 17]
5 | 0.03 µg/mL |  | Cc1cc(-c2ccccc2)c(C(=O)C(=O)Nc2ccc3c(c2)COCC2CN(c4ncc(F)cn4)CCN32)n1C (centres unmarked) [Example 18, 2-(1,5-dimethyl-3-phenyl-1H-pyrrol-2-yl)-N-(3-(5-fluoropyrimidin-2-yl)-1,2,3,4,4a,5-hexahydro-7H-benzo[e]pyrazino[2,1-c] [1,4]oxazolin-9-yl)-2-oxoacetamide]
6 |  | 0.13 µg/mL (≈ 0.246 µM) | Cc1cc(-c2ccccc2)c(C(=O)C(=O)Nc2cnc3c(c2)OCC2CN(c4ncc(F)cn4)CCN32)n1C (centres unmarked) [Example 22, 2-(1,5-dimethyl-3-phenyl-1H-pyrrol-2-yl)-N-(8-(5-fluoropyrimidin-2-yl)-6,6a,7,8,9,10-hexahydropyrazino[1,2-d]pyrido[3,2-b] [1,4]oxazin-3-yl)-2-oxoacetamide]
7 |  | 0.13 µg/mL (≈ 0.231 µM) | Cc1cc(-c2ccccc2)c(C(=O)C(=O)Nc2ccc3c(c2)OC[C@H]2CN(c4ncc(N5CCC5)cn4)CCN32)n1C [Example 23, (R)—N-(3-(5-(azetidin-1-yl)pyrimidin-2-yl)-1,2,3,4,4a,5-hexahydrobenzo[b]pyrazino[1,2-d] [1,4]oxazin-8-yl)-2-(1,5-dimethyl-3-phenyl-1H-pyrrol-2-yl)-2-oxoacetamide]
8 |  | 0.13 µg/mL (≈ 0.219 µM) | Cc1cc(-c2ccccc2)c(C(=O)C(=O)Nc2ccc3c(c2)OC[C@H]2CN(c4ncc(N5CCOCC5)cn4)CCN32)n1C [Example 24, (R)-2-(1,5-dimethyl-3-phenyl-1H-pyrrol-2-yl)-N-(3-(5-morpholinopyrimidin-2-yl)-1,2,3,4,4a,5-hexahydrobenzo[b]pyrazino[1,2-d] [1,4]oxazin-8-yl)-2-oxoacetamide]

The next lines start with the molecule.

Row | SMILES | AF293: MIC | MIC
9 | Cc1cc(-c2ccccc2)c(C(=O)C(=O)Nc2ccc3c(c2)CC2CN(c4ncc(F)cn4)CCCN32)n1C (centres unmarked) [2 (T-2-a), 2-(1,5-dimethyl-3-phenyl-1H-pyrrol-2-yl)-N-(2-(5-fluoropyrimidin-2-yl)-2,3,4,5,11,11a-hexahydro-1H-[1,4]diaza[1,2-a]indol-9-yl)-2-oxoacetamide] | 0.06 µg/mL | 
10 | Cc1cc(-c2ccccc2)c(C(=O)C(=O)Nc2ccc3c(c2)CC2CCN(c4ncc(F)cn4)CCN32)n1C (centres unmarked) [2 (T-2-b), 2-(1,5-dimethyl-3-phenyl-1H-pyrrol-2-yl)-N-(3-(5-fluoropyrimidin-2-yl)-2,3,4,5,11,11a-hexahydro-1H-[1,4]diaza[1,7-a]indol-9-yl)-2-oxoacetamide] | 0.06 µg/mL | 
11 | Cc1cc(-c2ccccc2)c(C(=O)C(=O)Nc2ccc3c(c2)OCC2CN(c4ncc(C#N)cn4)CCN32)n1C (centres unmarked) [Example 7, N-(3-(5-cyanopyrimidin-2-yl)-1,2,3,4,4a,5-hexahydrobenzo[b]pyrazino[1,2-d] [1,4]oxazin-8-yl)-2-(1,5-dimethyl-3-phenyl-1H-pyrrol-2-yl)-2-oxyacetamide] | 0.06 µg/mL | 
12 | COc1cnc(N2CCN3c4ccc(NC(=O)C(=O)c5c(-c6ccccc6)cc(C)n5C)cc4OCC3C2)nc1 (centres unmarked) [Example 8] |  | 0.03 µg/mL (≈ 0.0557 µM)
13 | Cc1cc(-c2ccccc2)c(C(=O)C(=O)Nc2ccc3c(c2)OCC2CN(c4nccc(Cl)n4)CCN32)n1C (centres unmarked) [Example 10] |  | 0.06 µg/mL (≈ 0.11 µM)
14 | Cc1cc(-c2ccccc2)c(C(=O)C(=O)Nc2ccc3c(c2)OCC2CN(c4ccnc(Cl)n4)CCN32)n1C (centres unmarked) [Example 11] |  | 0.5 µg/mL (≈ 0.921 µM)

Source: US20240327423A1, “A SERIES OF PYRROLE DERIVATIVES AND THEIR PREPARATION METHOD AND THERAPEUTIC USE” (SHENZHEN SUNGENING BIO-MEDICAL CO., LTD, priority 2020, published 2024)
